Target: T1, human subtype 5 somatostatin receptor (Homo sapiens, UniProt P35346)
T1 construct: host or cells: CHO cells, stably transfected; membranes prepared from them
Assay: SSTR5 radioligand binding assay (membranes of transfected CHO cells, 125I-labeled 11-Tyr somatostatin-14 tracer)
Details: CHO cell membranes, Ki calculated from IC50 by Cheng-Prussoff equation
Experimental: A CHO cell line stably transfected with a plasmid encoding the human subtype 5 somatostatin receptor (GenBank accession number D16827) was obtained from Euroscreen. Cells were cultured and used for binding and functional assays.
Membranes of these cells were prepared by sonication in the presence of protease inhibitors and subsequent fractionating centrifugation. The protein concentration in the membrane preparation was determined using a commercial kit (BCA kit, Pierce, USA). Membranes were stored at −80° C. until use. After thawing, membranes were diluted in assay buffer (50 mM Tris-HCl at pH 7.4, 5 mM MgCl2 and 0.20% BSA) and subjected to dounce homogenization.
For binding studies, 0.1 mL membrane suspension, corresponding to app. 6×10^−15 mol receptor, was incubated for 1 h at room temperature with 0.05 nM ^125I-labeled tracer (11-Tyr somatostatin-14, Perkin-Elmer) and either test compounds in varying concentrations or, for the determination of non-specific binding, 0.001 mM non-labeled somatostatin-14. The incubation was stopped by filtration through GF/B glassfiber filters and washing with ice-cold wash buffer (50 mM Tris-HCl at pH 7.4). The bound radioactivity was measured after application of a scintillation cocktail (Microscint 40) and expressed as disintegrations per minute (dpm).
The receptor concentration was determined in a prior saturation experiment where a fixed, arbitrary amount of membranes was incubated with a concentration range of radio-labeled tracer. This allows estimating the total number of specific binding sites per amount of protein (i.e., Bmax), typically between 1 and 5 pmol/mg.
The concentration of the test compound required to result in half maximal inhibition of binding of the radio-labeled tracer (IC50) was estimated from a concentration-versus-dpm graph. The binding affinity (Ki) was calculated from the IC50 by applying the Cheng-Prussoff equation for single binding sites.

T1 sequence (P35346 whole entry): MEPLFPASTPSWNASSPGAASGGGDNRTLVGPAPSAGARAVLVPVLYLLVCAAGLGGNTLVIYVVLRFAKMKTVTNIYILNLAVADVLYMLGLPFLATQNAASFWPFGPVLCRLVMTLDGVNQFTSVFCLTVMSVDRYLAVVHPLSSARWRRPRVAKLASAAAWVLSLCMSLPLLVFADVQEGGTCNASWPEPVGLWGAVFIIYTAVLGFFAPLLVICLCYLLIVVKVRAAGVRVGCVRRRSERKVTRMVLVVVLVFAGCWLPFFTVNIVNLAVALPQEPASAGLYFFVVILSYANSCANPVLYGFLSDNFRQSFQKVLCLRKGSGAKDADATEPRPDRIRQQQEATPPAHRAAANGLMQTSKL

Ki | SMILES
7 nM | CCOc1cc(CN2CCC(Nc3ccc4ccccc4n3)CC2)cc(OCC)c1F [Example 103, [1-(3,5-diethoxy-4-fluoro-benzyl)-piperidin-4-yl]-quinolin-2-yl-amine]
789 nM | CCOc1cc(CN2CCC(Nc3nc(C)c(-c4ccccc4)cc3C#N)CC2)ccc1OC [Example 24, 2-[1-(3-ethoxy-4-methoxy-benzyl)-piperidin-4-ylamino]-6-methyl-5-phenyl-nicotinonitrile]
86 nM | CCOc1cc(CN2CCC(Nc3cnc(C(N)=O)cn3)CC2)ccc1Cl [Example 205, 5-[1-(4-Chloro-3-ethoxy-benzyl)-piperidin-4-ylamino]-pyrazine-2-carboxylic acid amide]

Reference: US8026255B2, “Substituted piperidines as somatostatin receptor subtype 5 (SSTR5) antagonists” (Hoffman-La Roche Inc., priority 2006, dated 2011)
